System: patients with NSCLC
Experiment: POPLAR phase II trial: atezolizumab vs docetaxel, efficacy by PD-L1, CXCL9, IFNG expression level
Format: in vivo, human
Procedure: An RNA-based molecular assay was used to evaluate the association between clinical response to treatment with atezolizumab (MPDL3280A), an anti-PD-L1 antibody, and expression levels of PD-L1, CXCL9, and IFNG in individuals with NSCLC enrolled in a phase II clinical trial in which atezolizumab was administered as a monotherapy.
The POPLAR (Clinical Trial ID No.: NCT01903993) patient population evaluated for PD-L1, CXCL9, and IFNG expression levels consisted of 215 patients. Patients were eligible for enrollment in the POPLAR study if they had locally advanced or metastatic (e.g., stage IIIB, stage IV, or recurrent) NSCLC; disease progression during or following treatment with a prior platinum-containing regimen for locally advanced, unresectable/inoperable, or metastatic NSCLC, or disease recurrence within 6 months of treatment with a platinum-based adjuvant/neoadjuvant regimen; measurable disease, as defined by RECIST v1.1; and an ECOG performance status of 0 or 1. Participants were randomized to receive either atezolizumab at a dose of 1200 mg intravenously every three weeks or docetaxel 75 mg per square meter (mg/m^2) intravenously every three weeks. Treatment with atezolizumab could be continued as long as participants were experiencing clinical benefit, i.e., in the absence of unacceptable toxicity or symptomatic deterioration attributed to disease progression.
To evaluate whether PD-L1, CXCL9, and IFNG gene expression status was associated with patient response to atezolizumab (MPDL3280A) treatment, the gene expression level of PD-L1, CXCL9, and IFNG was assessed in pre-treatment, FFPE tumor samples obtained from each patient. RNA was isolated from the FFPE tumor sections and PD-L1, CXCL9, and IFNG gene expression was measured using PCR-based methodology (Fluidigm). The expression level, expressed as the cycle threshold (Ct) for each of PD-L1, CXCL9, and IFNG was normalized to the expression level of a housekeeping gene (e.g., TMEM55B). The normalized expression value, dCt, where dCt(target gene)=Ct(control gene)−Ct(target gene) for each of PD-L1, CXCL9, and IFNG, was then averaged to obtain a single numerical averaged dCt value for the aggregate expression level of PD-L1, CXCL9, and IFNG.
Tumor specimens obtained from the patients were categorized into different high or low expression level subgroups based on the immune-score expression level of PD-L1, CXCL9, and IFNG relative to a cut-off value for a given percentile (25th, 50th, or 75th percentile) of the population. The 25th percentile was defined by the immune-score expression levels of PD-L1, CXCL9, and IFNG greater than or equal to 25% of all immune-score expression levels of PD-L1, CXCL9, and IFNG in the population analyzed. The 50th percentile was defined by the immune-score expression levels of PD-L1, CXCL9, and IFNG greater than or equal to 50% of all immune-score expression levels of PD-L1, CXCL9, and IFNG in the population analyzed. The 75th percentile was defined by the immune-score expression levels of PD-L1, CXCL9, and IFNG greater than or equal to 75% of all immune-score expression levels of PD-L1, CXCL9, and IFNG in the population analyzed. […]
The OS, PFS, and ORR endpoints from the POPLAR clinical trial were evaluated against the PD-L1, CXCL9, and IFNG expression level cut-offs defined herein (e.g., the 25%, 50%, and 75% expression level quartiles). […]

CC(=O)O[C@@]12CO[C@@H]1C[C@H](O)[C@@]1(C)C(=O)[C@H](O)C3=C(C)[C@@H](OC(=O)[C@H](O)[C@@H](NC(=O)OC(C)(C)C)c4ccccc4)C[C@@](O)([C@@H](OC(=O)c4ccccc4)[C@H]21)C3(C)C [docetaxel]
ORR (BEP (n = 113 vs 112)): 8% | ORR (ITT (n = 144 vs 143)): 15% vs 15% | ORR (PD-L1, CXCL9, IFNG expression level percentile ≥25%): 13% | ORR (PD-L1, CXCL9, IFNG expression level percentile ≥50% (median)): 15% | ORR (PD-L1, CXCL9, IFNG expression level percentile ≥75%): 13%
